Assay results taken from the kinase profiling compilation of Christmann-Franck et al. (2016).
Blank lines part the entries; values can stand above or below the compound they belong to.

Legend:
Assay in all cases: radiometric filter-binding kinase assay
PRKCZ (human) = PRKCZ (human) (UniProt Q05513)
BRSK2 (human) = BRSK2 (human) (UniProt Q8IWQ3)
MAP3K5 (human) = MAP3K5 (human) (UniProt Q99683)
EPHB4 (human) = EPHB4 (human) (UniProt P54760)
GSK3B (human) = GSK3B (human) (UniProt P49841)
MAP3K9 (human) = MAP3K9 (human) (UniProt P80192)
[1] = test system: AKT2 (human), P31751 [S474D]
RPS6KA5 KD1 KD2 (human) = RPS6KA5 KD1 KD2 (human) (UniProt O75582)
CSK (human) = CSK (human) (UniProt P41240)
HIPK3 (human) = HIPK3 (human) (UniProt Q9H422)
EPHB1 (human) = EPHB1 (human) (UniProt P54762)
HIPK2 (human) = HIPK2 (human) (UniProt Q9H2X6)
MAPK13 (human) = MAPK13 (human) (UniProt O15264)
CLK2 (human) = CLK2 (human) (UniProt P49760)
MAPK1 (human) = MAPK1 (human) (UniProt P28482)
PAK6 (human) = PAK6 (human) (UniProt Q9NQU5)
INSR (human) = INSR (human) (UniProt P06213); conditions: compound 0.1 µM
DAPK1 (human) = DAPK1 (human) (UniProt P53355)
EPHB3 (human) = EPHB3 (human) (UniProt P54753)
YES1 (human) = YES1 (human) (UniProt P07947)
IGF1R (human) = IGF1R (human) (UniProt P08069)
PLK1 (human) = PLK1 (human) (UniProt P53350)
MAP3K7 TAB1 (human) = MAP3K7 TAB1 (human) (UniProt Q15750+O43318)
PRKAA1 or PRKAA2 (rat) = conditions: accession and sequence are those of the human protein
PAK7 (human) = PAK7 (human) (UniProt Q9P286)
PKN2 (human) = PKN2 (human) (UniProt Q16513)
ROCK2 (rat) = conditions: accession and sequence are those of the human protein
EPHA4 (human) = EPHA4 (human) (UniProt P54764)
MAPK11 (human) = MAPK11 (human) (UniProt Q15759)
CAMKK2 (human) = CAMKK2 (human) (UniProt Q96RR4); conditions: compound 0.1 µM
MAP3K1 (human) = MAP3K1 (human) (UniProt Q13233)
MARK4 (human) = MARK4 (human) (UniProt Q96L34)
LCK (mouse) = conditions: compound 1.0 µM; accession and sequence are those of the human protein
SYK (human) = SYK (human) (UniProt P43405)
SRC (human) = SRC (human) (UniProt P12931)
HIPK1 (human) = HIPK1 (human) (UniProt Q86Z02)

Sequence of DAPK1 (human) (P53355 whole entry, looked up): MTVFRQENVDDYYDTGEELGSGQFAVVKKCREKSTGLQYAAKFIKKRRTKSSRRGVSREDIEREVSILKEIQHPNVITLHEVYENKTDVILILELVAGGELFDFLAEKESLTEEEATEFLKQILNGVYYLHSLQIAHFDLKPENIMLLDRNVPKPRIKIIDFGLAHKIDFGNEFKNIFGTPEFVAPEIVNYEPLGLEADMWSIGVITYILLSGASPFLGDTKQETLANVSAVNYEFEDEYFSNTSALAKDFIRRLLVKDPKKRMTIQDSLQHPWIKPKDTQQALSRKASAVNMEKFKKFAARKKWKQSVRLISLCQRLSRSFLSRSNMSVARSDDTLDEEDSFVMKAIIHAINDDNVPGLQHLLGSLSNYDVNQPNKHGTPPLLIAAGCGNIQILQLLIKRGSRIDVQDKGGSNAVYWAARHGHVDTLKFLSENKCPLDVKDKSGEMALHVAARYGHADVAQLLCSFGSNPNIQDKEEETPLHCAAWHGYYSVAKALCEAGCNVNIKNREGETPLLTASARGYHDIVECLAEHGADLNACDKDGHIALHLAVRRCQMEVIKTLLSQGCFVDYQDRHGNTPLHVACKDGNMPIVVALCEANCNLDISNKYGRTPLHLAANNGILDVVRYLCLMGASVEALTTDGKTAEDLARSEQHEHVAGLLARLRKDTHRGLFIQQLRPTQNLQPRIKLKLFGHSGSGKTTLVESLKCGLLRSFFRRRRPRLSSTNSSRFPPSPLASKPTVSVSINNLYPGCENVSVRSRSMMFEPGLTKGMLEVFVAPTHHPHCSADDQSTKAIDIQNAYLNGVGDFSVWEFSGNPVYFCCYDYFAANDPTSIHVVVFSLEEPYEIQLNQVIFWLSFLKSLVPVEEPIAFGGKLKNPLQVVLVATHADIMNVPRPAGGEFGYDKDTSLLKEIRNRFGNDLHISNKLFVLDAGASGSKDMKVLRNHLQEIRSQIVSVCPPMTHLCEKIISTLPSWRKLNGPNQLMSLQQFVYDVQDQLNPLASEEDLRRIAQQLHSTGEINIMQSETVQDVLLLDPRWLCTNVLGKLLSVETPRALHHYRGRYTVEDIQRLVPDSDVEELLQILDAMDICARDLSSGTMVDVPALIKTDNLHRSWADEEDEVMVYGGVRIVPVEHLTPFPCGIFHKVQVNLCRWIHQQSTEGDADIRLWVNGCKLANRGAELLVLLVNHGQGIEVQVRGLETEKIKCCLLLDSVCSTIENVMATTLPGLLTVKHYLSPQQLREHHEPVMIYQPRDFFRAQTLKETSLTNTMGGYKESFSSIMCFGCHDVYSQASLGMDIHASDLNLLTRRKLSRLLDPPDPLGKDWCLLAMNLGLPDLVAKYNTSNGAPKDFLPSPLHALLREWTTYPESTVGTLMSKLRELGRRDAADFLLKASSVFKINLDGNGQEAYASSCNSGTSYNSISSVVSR
Sequence of AKT2 (human), P31751 [S474D] (P31751 whole entry S474D, looked up): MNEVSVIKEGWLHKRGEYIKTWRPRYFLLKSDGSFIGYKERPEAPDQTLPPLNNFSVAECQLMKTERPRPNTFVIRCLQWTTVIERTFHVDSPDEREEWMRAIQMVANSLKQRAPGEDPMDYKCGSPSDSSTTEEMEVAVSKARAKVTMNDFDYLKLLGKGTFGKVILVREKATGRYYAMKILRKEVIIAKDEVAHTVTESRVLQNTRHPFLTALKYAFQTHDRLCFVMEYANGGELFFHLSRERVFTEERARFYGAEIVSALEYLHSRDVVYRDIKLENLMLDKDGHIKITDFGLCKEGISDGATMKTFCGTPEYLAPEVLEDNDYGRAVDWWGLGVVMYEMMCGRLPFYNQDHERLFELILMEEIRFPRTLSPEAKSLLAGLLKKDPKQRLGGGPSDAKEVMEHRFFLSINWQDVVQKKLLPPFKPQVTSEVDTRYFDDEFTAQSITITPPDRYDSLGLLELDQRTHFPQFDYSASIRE
Sequence of MAP3K1 (human) (Q13233 whole entry, looked up): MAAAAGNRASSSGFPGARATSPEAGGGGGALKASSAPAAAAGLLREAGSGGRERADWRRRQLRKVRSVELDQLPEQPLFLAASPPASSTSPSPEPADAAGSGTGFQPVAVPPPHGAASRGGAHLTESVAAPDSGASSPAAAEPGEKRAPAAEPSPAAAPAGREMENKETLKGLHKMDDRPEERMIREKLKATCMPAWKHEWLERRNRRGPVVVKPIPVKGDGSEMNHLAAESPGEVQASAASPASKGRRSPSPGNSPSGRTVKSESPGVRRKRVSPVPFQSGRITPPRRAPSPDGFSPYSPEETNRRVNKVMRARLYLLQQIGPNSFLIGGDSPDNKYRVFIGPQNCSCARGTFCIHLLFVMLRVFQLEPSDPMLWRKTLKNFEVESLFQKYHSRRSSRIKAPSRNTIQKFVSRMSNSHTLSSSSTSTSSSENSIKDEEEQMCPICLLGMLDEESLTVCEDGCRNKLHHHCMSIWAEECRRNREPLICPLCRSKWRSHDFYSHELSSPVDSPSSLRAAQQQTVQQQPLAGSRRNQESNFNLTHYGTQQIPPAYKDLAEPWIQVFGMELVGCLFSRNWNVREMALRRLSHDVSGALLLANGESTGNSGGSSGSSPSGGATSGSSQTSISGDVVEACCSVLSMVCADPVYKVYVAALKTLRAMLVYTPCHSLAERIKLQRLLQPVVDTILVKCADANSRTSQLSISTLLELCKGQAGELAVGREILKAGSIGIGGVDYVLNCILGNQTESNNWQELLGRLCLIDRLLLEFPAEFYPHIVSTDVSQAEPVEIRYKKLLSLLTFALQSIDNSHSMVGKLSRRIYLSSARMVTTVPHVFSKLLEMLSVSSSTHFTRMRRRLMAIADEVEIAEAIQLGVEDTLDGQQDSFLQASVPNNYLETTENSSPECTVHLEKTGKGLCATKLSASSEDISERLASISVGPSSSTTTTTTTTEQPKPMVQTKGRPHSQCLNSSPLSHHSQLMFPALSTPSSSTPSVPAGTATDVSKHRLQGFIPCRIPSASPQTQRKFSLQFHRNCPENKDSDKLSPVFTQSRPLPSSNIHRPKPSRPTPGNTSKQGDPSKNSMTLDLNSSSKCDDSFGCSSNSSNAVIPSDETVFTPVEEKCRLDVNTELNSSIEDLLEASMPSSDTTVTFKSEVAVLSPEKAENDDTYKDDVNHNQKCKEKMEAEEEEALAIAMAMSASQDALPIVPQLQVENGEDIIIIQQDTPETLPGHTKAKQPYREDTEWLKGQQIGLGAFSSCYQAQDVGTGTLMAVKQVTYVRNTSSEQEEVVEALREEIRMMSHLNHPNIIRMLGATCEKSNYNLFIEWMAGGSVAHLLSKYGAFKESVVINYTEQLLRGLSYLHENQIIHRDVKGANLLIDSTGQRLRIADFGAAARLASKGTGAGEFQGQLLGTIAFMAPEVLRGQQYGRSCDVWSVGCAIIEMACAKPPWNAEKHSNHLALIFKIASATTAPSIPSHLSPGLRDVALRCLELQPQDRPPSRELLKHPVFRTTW
Sequence of GSK3B (human) (P49841 whole entry, looked up): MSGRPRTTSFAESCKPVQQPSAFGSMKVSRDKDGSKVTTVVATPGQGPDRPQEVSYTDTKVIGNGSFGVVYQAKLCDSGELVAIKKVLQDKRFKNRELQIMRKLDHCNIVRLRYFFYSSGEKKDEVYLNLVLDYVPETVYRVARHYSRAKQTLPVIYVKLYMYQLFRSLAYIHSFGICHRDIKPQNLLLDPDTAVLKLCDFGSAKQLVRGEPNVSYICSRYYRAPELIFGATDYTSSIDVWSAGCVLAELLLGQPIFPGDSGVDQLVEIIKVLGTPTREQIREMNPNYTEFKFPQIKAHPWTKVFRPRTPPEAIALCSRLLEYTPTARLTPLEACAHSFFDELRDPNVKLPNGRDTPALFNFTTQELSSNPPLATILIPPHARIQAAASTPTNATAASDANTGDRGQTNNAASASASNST
Sequence of CLK2 (human) (P49760 whole entry, looked up): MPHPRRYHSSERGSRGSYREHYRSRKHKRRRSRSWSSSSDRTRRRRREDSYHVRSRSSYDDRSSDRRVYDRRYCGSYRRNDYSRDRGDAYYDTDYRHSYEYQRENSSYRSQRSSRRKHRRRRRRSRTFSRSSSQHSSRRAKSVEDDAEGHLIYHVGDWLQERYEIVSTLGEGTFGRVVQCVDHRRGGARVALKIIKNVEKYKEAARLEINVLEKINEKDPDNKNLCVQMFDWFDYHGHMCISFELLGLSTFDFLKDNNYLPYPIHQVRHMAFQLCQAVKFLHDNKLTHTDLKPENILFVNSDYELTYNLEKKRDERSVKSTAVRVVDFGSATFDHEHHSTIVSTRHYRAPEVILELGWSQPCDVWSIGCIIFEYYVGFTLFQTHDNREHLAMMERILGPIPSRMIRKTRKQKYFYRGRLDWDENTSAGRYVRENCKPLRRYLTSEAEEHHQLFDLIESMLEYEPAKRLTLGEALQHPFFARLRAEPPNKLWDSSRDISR
Sequence of MARK4 (human) (Q96L34 whole entry, looked up): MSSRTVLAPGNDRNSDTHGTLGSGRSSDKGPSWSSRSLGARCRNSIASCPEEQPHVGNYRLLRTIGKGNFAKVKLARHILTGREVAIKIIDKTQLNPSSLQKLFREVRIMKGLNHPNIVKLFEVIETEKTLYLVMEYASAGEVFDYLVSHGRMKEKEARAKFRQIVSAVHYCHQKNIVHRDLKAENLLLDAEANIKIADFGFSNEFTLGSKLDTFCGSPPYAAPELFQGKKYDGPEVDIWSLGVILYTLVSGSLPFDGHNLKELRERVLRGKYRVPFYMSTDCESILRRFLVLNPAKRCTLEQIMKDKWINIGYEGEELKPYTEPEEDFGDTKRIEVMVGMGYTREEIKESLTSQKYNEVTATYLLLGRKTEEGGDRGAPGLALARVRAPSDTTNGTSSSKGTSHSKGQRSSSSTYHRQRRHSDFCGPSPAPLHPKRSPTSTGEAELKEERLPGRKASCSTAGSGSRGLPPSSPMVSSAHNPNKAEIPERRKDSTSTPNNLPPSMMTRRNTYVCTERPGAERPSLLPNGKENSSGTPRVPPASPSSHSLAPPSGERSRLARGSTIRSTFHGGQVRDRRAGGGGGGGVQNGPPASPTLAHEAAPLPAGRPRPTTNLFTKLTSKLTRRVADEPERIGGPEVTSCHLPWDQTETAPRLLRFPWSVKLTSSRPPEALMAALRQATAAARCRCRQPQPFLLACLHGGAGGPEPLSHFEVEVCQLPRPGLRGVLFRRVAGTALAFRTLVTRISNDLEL

residual activity (PRKCZ (human); compound 0.1 µM): 101%
residual activity (BRSK2 (human); compound 0.1 µM): 96%
residual activity (MAP3K5 (human); compound 0.1 µM): 100%
residual activity (EPHB4 (human); compound 0.1 µM): 76%
residual activity (GSK3B (human); compound 0.1 µM): 101%
residual activity (MAP3K9 (human); compound 0.1 µM): 86%
residual activity ([1]; compound 0.1 µM): 86%
residual activity (RPS6KA5 KD1 KD2 (human); compound 0.1 µM): 103%
residual activity (CSK (human); compound 0.1 µM): 74%
residual activity (HIPK3 (human); compound 0.1 µM): 101%
residual activity (EPHB1 (human); compound 0.1 µM): 81%
residual activity (HIPK2 (human); compound 0.1 µM): 80%
residual activity (MAPK13 (human); compound 0.1 µM): 91%
residual activity (CLK2 (human); compound 0.1 µM): 111%
residual activity (MAPK1 (human); compound 0.1 µM): 100%
residual activity (PAK6 (human); compound 0.1 µM): 90%
residual activity (INSR (human)): 90%
residual activity (DAPK1 (human); compound 0.1 µM): 82%
residual activity (EPHB3 (human); compound 0.1 µM): 89%
residual activity (YES1 (human); compound 0.1 µM): 4%
residual activity (IGF1R (human); compound 0.1 µM): 97%
residual activity (PLK1 (human); compound 0.1 µM): 96%
residual activity (MAP3K7 TAB1 (human); compound 0.1 µM): 115%
residual activity (PRKAA1 or PRKAA2 (rat); compound 0.1 µM): 99%
residual activity (PAK7 (human); compound 0.1 µM): 98%
residual activity (PKN2 (human); compound 0.1 µM): 103%
residual activity (ROCK2 (rat); compound 0.1 µM): 111%
residual activity (EPHA4 (human); compound 0.1 µM): 49%
residual activity (MAPK11 (human); compound 0.1 µM): 85%
residual activity (CAMKK2 (human)): 95%
residual activity (MAP3K1 (human); compound 0.1 µM): 84%
residual activity (MARK4 (human); compound 0.1 µM): 95%
SMILES: CN1CCN(CCOc2cc(OC3CCOCC3)c3c(Nc4c(Cl)ccc5c4OCO5)ncnc3c2)CC1

residual activity (PRKCZ (human); compound 1.0 µM): 117%
residual activity (PRKCZ (human); compound 5.0 µM): 98%
residual activity (BRSK2 (human); compound 1.0 µM): 109%
residual activity (MAP3K5 (human); compound 1.0 µM): 98%
residual activity (MAP3K5 (human); compound 5.0 µM): 125%
residual activity (EPHB4 (human); compound 1.0 µM): 124%
residual activity (GSK3B (human); compound 1.0 µM): 106%
residual activity (GSK3B (human); compound 5.0 µM): 105%
residual activity (MAP3K9 (human); compound 1.0 µM): 117%
residual activity (MAP3K9 (human); compound 5.0 µM): 95%
residual activity ([1]; compound 1.0 µM): 101%
residual activity ([1]; compound 5.0 µM): 92%
residual activity (RPS6KA5 KD1 KD2 (human); compound 1.0 µM): 110%
residual activity (RPS6KA5 KD1 KD2 (human); compound 5.0 µM): 106%
residual activity (CSK (human); compound 5.0 µM): 98%
residual activity (HIPK3 (human); compound 1.0 µM): 110%
residual activity (HIPK3 (human); compound 5.0 µM): 122%
residual activity (EPHB1 (human); compound 1.0 µM): 103%
residual activity (EPHB1 (human); compound 5.0 µM): 115%
residual activity (HIPK2 (human); compound 1.0 µM): 124%
residual activity (HIPK2 (human); compound 5.0 µM): 113%
residual activity (LCK (mouse)): 112%
residual activity (MAPK13 (human); compound 1.0 µM): 115%
residual activity (MAPK13 (human); compound 5.0 µM): 113%
residual activity (CLK2 (human); compound 1.0 µM): 90%
residual activity (CLK2 (human); compound 5.0 µM): 93%
residual activity (MAPK1 (human); compound 1.0 µM): 90%
residual activity (MAPK1 (human); compound 5.0 µM): 83%
residual activity (PAK6 (human); compound 1.0 µM): 119%
residual activity (PAK6 (human); compound 5.0 µM): 115%
residual activity (DAPK1 (human); compound 1.0 µM): 102%
residual activity (DAPK1 (human); compound 5.0 µM): 107%
residual activity (EPHB3 (human); compound 1.0 µM): 95%
residual activity (EPHB3 (human); compound 5.0 µM): 115%
residual activity (YES1 (human); compound 5.0 µM): 109%
residual activity (IGF1R (human); compound 1.0 µM): 120%
residual activity (IGF1R (human); compound 5.0 µM): 109%
residual activity (PLK1 (human); compound 1.0 µM): 103%
residual activity (PLK1 (human); compound 5.0 µM): 103%
residual activity (MAP3K7 TAB1 (human); compound 1.0 µM): 109%
residual activity (SYK (human); compound 1.0 µM): 102%
residual activity (SYK (human); compound 5.0 µM): 105%
residual activity (PRKAA1 or PRKAA2 (rat); compound 1.0 µM): 97%
residual activity (PRKAA1 or PRKAA2 (rat); compound 5.0 µM): 98%
residual activity (PAK7 (human); compound 1.0 µM): 117%
residual activity (PAK7 (human); compound 5.0 µM): 98%
residual activity (PKN2 (human); compound 1.0 µM): 106%
residual activity (PKN2 (human); compound 5.0 µM): 102%
residual activity (ROCK2 (rat); compound 1.0 µM): 123%
residual activity (ROCK2 (rat); compound 5.0 µM): 113%
residual activity (EPHA4 (human); compound 1.0 µM): 110%
residual activity (EPHA4 (human); compound 5.0 µM): 87%
residual activity (SRC (human); compound 1.0 µM): 110%
residual activity (SRC (human); compound 5.0 µM): 111%
residual activity (MAPK11 (human); compound 1.0 µM): 111%
residual activity (MAPK11 (human); compound 5.0 µM): 121%
residual activity (MAP3K1 (human); compound 1.0 µM): 112%
residual activity (MAP3K1 (human); compound 5.0 µM): 120%
residual activity (HIPK1 (human); compound 1.0 µM): 114%
residual activity (HIPK1 (human); compound 5.0 µM): 106%
residual activity (MARK4 (human); compound 1.0 µM): 111%
residual activity (MARK4 (human); compound 5.0 µM): 93%
SMILES: C=C1C(=O)OC2C1CC/C(C)=C/CCC1(C)OC21 (centres undefined)
